According to patent publication US8546443B2, “Benzylic oxindole pyrimidines” (Boehringer Ingelheim International GmbH, priority 2010, dated 2013):

Experiments:
[1] = molecular target: T1, cytoplasmic kinase domain of human IGF-1R (IGF-1R-GST) (Homo sapiens, UniProt P08069); test: Insulin-like growth factor-1 receptor (IGF-1R) kinase assay (DELFIA); assay type: biochemical; details: IGF-1R-GST kinase activity, read-out: IGF1R IC50
T1 construct: cytoplasmic kinase domain of human IGF-1R (amino acids 964-1370); GST (glutathione-S-transferase); made in house; host or cells: High Five insect cells (Invitrogen)
Procedure, shortened: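 GST-tagged IGF-1R cytoplasmic kinase domain phosphorylates pEY with biotinylated pEY for 40 min at RT; EDTA stop. Product captured on streptavidin, detected with europium anti-phosphotyrosine antibody by DELFIA time-resolved fluorescence; IC50 from inhibition curves.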

[2] = tested on: TC-71 (Ewing's sarcoma) cells; test: Cell proliferation assay, TC-71 (Alamar Blue); assay type: cell-based; details: 72 h with compound, EC50 ranges as class symbols
Protocol: Cell Proliferation Assays
Compounds were tested for their anti-proliferative effects in the TC-71 (Ewing's sarcoma) and HCT 116 (colorectal carcinoma) cancer cell lines in vitro. Published scientific data has described that interference with the Insulin-like Growth Factor-1 Receptor (IGF-1R) signaling pathway reduces the proliferation of TC-71 cells. Therefore TC-71 cells served as a positive control cell line for monitoring the activity of compounds against IGF-1R-mediated cell proliferation. […] Therefore the HCT 116 cell line served as a negative control.
2000 TC-71 cells or 1000 HCT 116 cells were seeded per well in 180 μL IMDM+10% foetal calf serum (FCS)+ penicillin/streptomycin into 96-well microtitre plates. The plates were placed in a cell culture incubator (37° C. in a humidified atmosphere of […]/5 CO2) overnight. The following day, serial dilutions of compounds, prepared in duplicates, were transferred onto the cell layers (controls without compound). The cells were cultivated for a further 72 h in the cell culture incubator. 20 μL of Alamar Blue™ (Serotec Ltd, Düsseldorf, Germany) was added to each well and the plates incubated for 7 h in the cell culture incubator. Fluorescence (extinction wavelength of 544 nm and emission at 590 nm) was then measured and the normalized data fitted by iterative calculation with a sigmoidal curve analysis program (Graph Pad Prism) with a variable Hill slope to determine the IC50 values.

T1 sequence (P08069 964-1367 limits assumed): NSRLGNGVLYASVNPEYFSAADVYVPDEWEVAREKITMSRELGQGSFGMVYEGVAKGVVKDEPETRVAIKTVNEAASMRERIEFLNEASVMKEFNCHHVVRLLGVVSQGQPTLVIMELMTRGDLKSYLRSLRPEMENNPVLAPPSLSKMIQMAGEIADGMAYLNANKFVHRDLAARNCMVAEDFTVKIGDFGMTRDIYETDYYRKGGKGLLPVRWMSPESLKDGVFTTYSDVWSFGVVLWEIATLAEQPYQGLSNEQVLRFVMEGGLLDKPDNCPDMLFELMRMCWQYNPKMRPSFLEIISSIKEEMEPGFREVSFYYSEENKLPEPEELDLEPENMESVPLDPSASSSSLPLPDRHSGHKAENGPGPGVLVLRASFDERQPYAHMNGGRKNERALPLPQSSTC

IC50 [1] [nM]	EC50 [2] [nM]	Compound
0.4	50 to 250	COCCN1CCCC(c2ccc(Nc3ncc(Cl)c(NCc4cccc5c4C(C)(C)C(=O)N5)n3)c(C)c2)C1 (racemic) [Example I-373]
6	50 to 250	CNC(=O)CN1CCCC(c2ccc(Nc3ncc(Cl)c(NCc4cccc5c4C(C)(C)C(=O)N5)n3)cc2)C1 (racemic) [Example I-379]
2	50 to 250	COCCN1CCCC(c2ccc(Nc3ncc(Cl)c(NCc4cccc5c4C(C)(C)C(=O)N5)n3)cc2)C1 (racemic) [Example I-380]
0.9	50 to 250	CC1(C)C(=O)Nc2cccc(CNc3nc(Nc4ccc(C5CCCN(CCO)C5)cc4)ncc3Cl)c21 (racemic) [Example I-381]
1	< 50	Cc1cc(C2CCCN(CCO)C2)ccc1Nc1ncc(Cl)c(NCc2cccc3c2C(C)(C)C(=O)N3)n1 (racemic) [Example I-382]
2	50 to 250	CNC(=O)CN1CCCC(c2ccc(Nc3ncc(Cl)c(NCc4cccc5c4C(C)(C)C(=O)N5)n3)c(C)c2)C1 (racemic) [Example I-383]
6	50 to 250	CCc1cc(C2CCCN(CCOC)C2)ccc1Nc1ncc(Cl)c(NCc2cccc3c2C(C)(C)C(=O)N3)n1 (racemic) [Example I-384]
0.7	< 50	COc1cc(N2CCNCC2)ccc1Nc1ncc(C(F)(F)F)c(NCc2cccc3c2C(C)(C)C(=O)N3)n1 [Example I-31]
6	50 to 250	CC1(C)C(=O)Nc2cccc(CNc3nc(Nc4ccc(C5CCN(C(=O)C6CCCC(=O)N6)CC5)cc4)ncc3Br)c21 (stereo not shown) [Example I-53]
7	50 to 250	CC(C)(O)C(=O)N1CCC(c2ccc(Nc3ncc(Br)c(NCc4cccc5c4C(C)(C)C(=O)N5)n3)cc2)CC1 [Example I-54]
1	50 to 250	CC1(C)C(=O)Nc2cccc(CNc3nc(Nc4ccc(C5CCN(C(=O)C6CCCN6)CC5)cc4)ncc3Br)c21 (stereo not shown) [Example I-55]
2	250 to 3000	CC1(C)C(=O)Nc2cccc(CNc3nc(Nc4ccc(C5CCN(C(=O)C6CCN6)CC5)cc4)ncc3Br)c21 (stereo not shown) [Example I-56]
0.76	< 50	Cc1cc(C2CCN(C(=O)CN(C)C)CC2)ccc1Nc1ncc(Br)c(NCc2cccc3c2C(C)(C)C(=O)N3)n1 [Example I-57]
6	250 to 3000	CN(C)CC(=O)N1CCC(n2cc(Nc3ncc(Cl)c(NCc4cccc5c4C(C)(C)C(=O)N5)n3)cn2)CC1 [Example I-66]
15	50 to 250	Cc1cc(C2CCN(C(=O)N(C)C)CC2)ccc1Nc1ncc(Cl)c(NCc2cccc3c2C(C)(C)C(=O)N3)n1 [Example I-67]
0.4	< 50	COc1cc(C2CCN(C(=O)CN(C)C)CC2)ccc1Nc1ncc(Br)c(NCc2cccc3c2C(C)(C)C(=O)N3)n1 [Example I-68]
1	< 50	Cc1cc(C2CCN(C(=O)CN(C)C)CC2)ccc1Nc1ncc(Cl)c(NCc2cccc3c2C(C)(C)C(=O)N3)n1 [Example I-69]
2	< 50	COc1cc(N2CCN(C)CC2)ccc1Nc1ncc(Cl)c(NCc2cccc3c2C(C)(C)C(=O)N3)n1 [Example I-97]
4	50 to 250	CN1CCC(n2cc(Nc3ncc(Cl)c(NCc4cccc5c4C(C)(C)C(=O)N5)n3)cn2)CC1 [Example I-102]
0.69	< 50	Cc1cc(C2CCN(C)CC2)ccc1Nc1ncc(Br)c(NCc2cccc3c2C(C)(C)C(=O)N3)n1 [Example I-103]
0.1	< 50	COc1cc(N2CCN(C)CC2)ccc1Nc1ncc(C(F)(F)F)c(NCc2cccc3c2C(C)(C)C(=O)N3)n1 [Example I-104]
4	250 to 3000	COc1cc(N2CCN(C)CC2)ccc1Nc1ncc(C(F)(F)F)c(NCc2cccc3c2C2(CC2)C(=O)N3)n1 [Example I-160]
14	250 to 3000	Cc1cc(C2CCN(S(C)(=O)=O)CC2)ccc1Nc1ncc(Cl)c(NCc2cccc3c2C(C)(C)C(=O)N3)n1 [Example I-203]
2	50 to 250	COCCN1CCC(c2ccc(Nc3ncc(Cl)c(NCc4cccc5c4C(C)(C)C(=O)N5)n3)cc2)CC1 [Example I-204]
0.68	50 to 250	COCCN1CCC(c2ccc(Nc3ncc(Br)c(NCc4cccc5c4C(C)(C)C(=O)N5)n3)cc2)CC1 [Example I-208]

IC50 [1] [nM]	EC50 [2] [nM]	Compound
1	50 to 250	CC1(C)C(=O)Nc2cccc(CNc3nc(Nc4ccc(C5CCN(CCO)CC5)cc4)ncc3Br)c21 [Example I-209]
0.47	< 50	CC(C)(O)CN1CCC(c2ccc(Nc3ncc(Br)c(NCc4cccc5c4C(C)(C)C(=O)N5)n3)cc2)CC1 [Example I-210]
3	50 to 250	CC(C)(O)CN1CCC(c2ccc(Nc3ncc(Cl)c(NCc4cccc5c4C(C)(C)C(=O)N5)n3)cc2)CC1 [Example I-211]
3	50 to 250	CC1(C)C(=O)Nc2cccc(CNc3nc(Nc4ccc(C5CCN(CCCF)CC5)cc4)ncc3Br)c21 [Example I-212]
4	50 to 250	CC1(C)C(=O)Nc2cccc(CNc3nc(Nc4ccc(C5CCN(CCCF)CC5)cc4)ncc3Cl)c21 [Example I-213]
0.62	< 50	Cc1cc(C2CCN(CCO)CC2)ccc1Nc1ncc(Br)c(NCc2cccc3c2C(C)(C)C(=O)N3)n1 [Example I-214]
12	250 to 3000	COCCN1CCC(n2cc(Nc3ncc(Cl)c(NCc4cccc5c4C(C)(C)C(=O)N5)n3)cn2)CC1 [Example I-215]
2	50 to 250	Cc1cc(C2CCN(CCS(C)(=O)=O)CC2)ccc1Nc1ncc(Cl)c(NCc2cccc3c2C(C)(C)C(=O)N3)n1 [Example I-216]
1	50 to 250	Cc1cc(C2CCN(CCO)CC2)ccc1Nc1ncc(Cl)c(NCc2cccc3c2C(C)(C)C(=O)N3)n1 [Example I-217]
1	< 50	COCCN1CCC(c2ccc(Nc3ncc(Cl)c(NCc4cccc5c4C(C)(C)C(=O)N5)n3)c(C)c2)CC1 [Example I-218]
2	50 to 250	Cc1cc(C2CCN(CC(N)=O)CC2)ccc1Nc1ncc(Cl)c(NCc2cccc3c2C(C)(C)C(=O)N3)n1 [Example I-220]
0.98	< 50	COCCN1CCC(c2ccc(Nc3ncc(Br)c(NCc4cccc5c4C(C)(C)C(=O)N5)n3)c(C)c2)CC1 [Example I-221]
5	50 to 250	COCC(=O)N1CCC(c2ccc(Nc3ncc(Cl)c(NCc4cccc5c4C(C)(C)C(=O)N5)n3)c(C)c2)CC1 [Example I-292]
10	50 to 250	CCNC(=O)N1CCC(c2ccc(Nc3ncc(Cl)c(NCc4cccc5c4C(C)(C)C(=O)N5)n3)c(C)c2)CC1 [Example I-293]
7	250 to 3000	Cc1cc(C2CCN(C(N)=O)CC2)ccc1Nc1ncc(Cl)c(NCc2cccc3c2C(C)(C)C(=O)N3)n1 [Example I-294]
4	50 to 250	CNC1(C(=O)N2CCC(c3ccc(Nc4ncc(Cl)c(NCc5cccc6c5C(C)(C)C(=O)N6)n4)c(C)c3)CC2)CC1 [Example I-295]
1	50 to 250	COc1cc(C2CCN(C(=O)CO)CC2)ccc1Nc1ncc(Cl)c(NCc2cccc3c2C(C)(C)C(=O)N3)n1 [Example I-296]
9	50 to 250	Cc1cc(C2CCN(C(=O)C(C)(C)O)CC2)ccc1Nc1ncc(Cl)c(NCc2cccc3c2C(C)(C)C(=O)N3)n1 [Example I-297]
7	50 to 250	Cc1cc(C2CCN(C(=O)CO)CC2)ccc1Nc1ncc(Cl)c(NCc2cccc3c2C(C)(C)C(=O)N3)n1 [Example I-298]
8	< 50	CNC1(C(=O)N2CCC(c3ccc(Nc4ncc(Cl)c(NCc5cccc6c5C(C)(C)C(=O)N6)n4)cc3)CC2)CC1 [Example I-299]
11	< 50	COc1cc(C2CCN(C(=O)C(C)(C)O)CC2)ccc1Nc1ncc(Cl)c(NCc2cccc3c2C(C)(C)C(=O)N3)n1 [Example I-300]
0.6	< 50	COc1cc(C2CCN(CC(C)(C)O)CC2)ccc1Nc1ncc(C(F)(F)F)c(NCc2cccc3c2C(C)(C)C(=O)N3)n1 [Example I-302]
0.2	< 50	Cc1cc(Nc2ncc(C(F)(F)F)c(NCc3cccc4c3C(C)(C)C(=O)N4)n2)ccc1C1CCN(CC(C)(C)O)CC1 [Example I-303]
1	< 50	COc1cc(N2CCN(CC(C)(C)O)CC2)ccc1Nc1ncc(C(F)(F)F)c(NCc2cccc3c2C(C)(C)C(=O)N3)n1 [Example I-304]
2	50 to 250	Cc1cc(N2CCN(CC(C)(C)O)CC2)ccc1Nc1ncc(C(F)(F)F)c(NCc2cccc3c2C(C)(C)C(=O)N3)n1 [Example I-305]
